Measurements from US10111435B2, “Herbicidal compositions containing N-(1,3,4-oxadiazol-2-yl)-aryl carboxylic acid amides” (BAYER CROPSCIENCE AKTIENGESELLSCHAFT, priority 2013, dated 2018).

What was measured:
Assay type in all cases: in vivo
Galium aparine (GALAP) = assay: greenhouse post-emergence herbicidal efficacy against GALAP
Description: (§1) All trials whose results are shown were conducted in a greenhouse by the methodology specified below. The effect of the inventive herbicidal compositions was examined on the following harmful plants 14 and 21 days after application:
(§2) Echinochloa crus-galli (ECHCG), Eleusine indica (ELEIN), Setaria viridis (SETVI), Amaranthus retroflexus (AMARE), Chenopodium album (CHEAL), Kochia scoparia (KCHSC), Solanum nigrum (SOLNI), Avena fatua (AVEFA), Bromus sterilis (BROST), Lolium multiflorum (LOLMU), Phalaris minor (PHAMI), Poa annua (POAAN), Galium aparine (GALAP), Matricaria inodora (MATIN) and Polygonum convolvulus (POLCO).
(§3) The harmful plant seeds were sown in pots (diameter 8 cm) with sandy loam soil and germinated under optimal conditions. The inventive herbicidal compositions or the active ingredients alone were applied post-emergence to the planted pots with a spray volume of 300 L/ha. The trial was conducted in a greenhouse under optimum growth conditions. The herbicidal effects were assessed visually by comparison of untreated and treated plants. The percentages mean: 0%=no effects, 100%=the plants die off completely).
(§4) The abbreviations mean: • a.i.=active ingredient • E^C=expected value according to Colby (E^C=A+B−A×B/100) • Diff: =difference (%) of measured value from expected value (%) (measured value minus expected value)
(§5) Assessment: • measured value E is greater than E^C:->synergism (+ diff.) • measured value E equals E^C:->additive effect • measured value E is smaller than E^C:->antagonism(− diff.)

Poa annua (POAAN) = assay: greenhouse post-emergence herbicidal efficacy against POAAN
Description: as §1, §2, §3, §4, §5

Phalaris minor (PHAMI) = assay: greenhouse post-emergence herbicidal efficacy against PHAMI
Description: as §1, §2, §3, §4, §5

[1] = tested on: Matricaria inodora (MATIN); assay: greenhouse post-emergence herbicidal efficacy against MATIN
Description: as §1, §2, §3, §4, §5

[2] = tested on: Chenopodium album (CHEAL); assay: greenhouse post-emergence herbicidal efficacy against CHEAL; conditions: 21 days after application
Description: as §1, §2
as §3, with “completely). The percentages are used to calculate interactions between individual treatments and combination treatments according to S. R. Colby, Weeds 15, pages 20 to 22 (1967).” for “completely).”
as §4, §5

Kochia scoparia (KCHSC) = assay: greenhouse post-emergence herbicidal efficacy against KCHSC
Description: as §1, §2
as §3, with “completely). The percentages are used to calculate interactions between individual treatments and combination treatments according to S. R. Colby, Weeds 15, pages 20 to 22 (1967).” for “completely).”
as §4, §5

Avena fatua (AVEFA) = assay: greenhouse post-emergence herbicidal efficacy against AVEFA
Description: as §1, §2, §3, §4, §5

Bromus sterilis (BROST) = assay: greenhouse post-emergence herbicidal efficacy against BROST
Description: as §1, §2, §3, §4, §5

[3] = tested on: Lolium multiflorum (LOLMU); assay: greenhouse post-emergence herbicidal efficacy against LOLMU
Description: as §1, §2, §3, §4, §5

Eleusine indica (ELEIN) = assay: greenhouse post-emergence herbicidal efficacy against ELEIN
Description: as §1, §2
as §3, with “completely). The percentages are used to calculate interactions between individual treatments and combination treatments according to S. R. Colby, Weeds 15, pages 20 to 22 (1967).” for “completely).”
as §4, §5

[4] = tested on: Polygonum convolvulus (POLCO); assay: greenhouse post-emergence herbicidal efficacy against POLCO
Description: as §1, §2, §3, §4, §5

[5] = 14 days after application, g of a.i./ha: A1-57 12.5, aclonifen 200
[6] = 14 days after application, g of a.i./ha: A1-57 50, aclonifen 200
[7] = 21 days after application, g of a.i./ha: A1-57 50, aclonifen 800
[8] = 14 days after application, g of a.i./ha: A1-57 12.5, aclonifen 800
[9] = 14 days after application, g of a.i./ha: A1-57 50, aclonifen 800
[10] = 21 days after application, g of a.i./ha: A1-57 12.5, aclonifen 800
[11] = 21 days after application, g of a.i./ha: A1-57 12.5, aclonifen 200
[12] = 21 days after application, 1 g of a.i./ha
[13] = 14 days after application, 50 g of a.i./ha
[14] = 14 days after application, 25 g of a.i./ha
[15] = 21 days after application, g of a.i./ha: A1-55 10, glufosinate-ammonium 25
[16] = 14 days after application, 100 g of a.i./ha
[17] = 21 days after application, g of a.i./ha: A1-55 2.5, glufosinate-ammonium 100
[18] = 21 days after application, g of a.i./ha: A1-55 10, glufosinate-ammonium 100
[19] = 21 days after application, g of a.i./ha: A1-55 2.5, glufosinate-ammonium 25

SMILES: Cc1nnc(NC(=O)c2ccc(S(C)(=O)=O)c(OCCF)c2Cl)o1 [A1-57]
- Efficacy (Galium aparine (GALAP); [5]): 30%
- Efficacy (Galium aparine (GALAP); [6]): 60%
- Efficacy (Galium aparine (GALAP); [7]): 40%
- Efficacy (Poa annua (POAAN); [5]): 15%
- Efficacy (Poa annua (POAAN); [8]): 15%
- Efficacy (Poa annua (POAAN); [6]): 50%
- Efficacy (Poa annua (POAAN); [9]): 50%
- Efficacy (Poa annua (POAAN); [10]): 10%
- Efficacy (Poa annua (POAAN); 21 days after application, g of a.i./ha: A1-57 50, aclonifen 200): 35%
- Efficacy (Poa annua (POAAN); [7]): 35%
- Efficacy (Phalaris minor (PHAMI); [5]): 50%
- Efficacy (Phalaris minor (PHAMI); [8]): 50%
- Efficacy (Phalaris minor (PHAMI); [6]): 70%
- Efficacy (Phalaris minor (PHAMI); [11]): 20%
- Efficacy (Phalaris minor (PHAMI); [10]): 20%
- Efficacy [1, 5]: 60%
- Efficacy [1, 8]: 60%
- Efficacy [1, 9]: 85%
- Efficacy [1, 7]: 80%
- Efficacy ([2]; 1 g of a.i./ha): 30%
- Efficacy (Kochia scoparia (KCHSC); 14 days after application, 1 g of a.i./ha): 40%
- Efficacy (Kochia scoparia (KCHSC); [12]): 20%
- Efficacy (Avena fatua (AVEFA); 14 days after application, 12.5 g of a.i./ha): 0%
- Efficacy (Avena fatua (AVEFA); [13]): 0%
- Efficacy (Avena fatua (AVEFA); [5]): 0%
- Efficacy (Avena fatua (AVEFA); [10]): 0%
- Efficacy (Bromus sterilis (BROST); [5]): 0%
- Efficacy (Bromus sterilis (BROST); [8]): 0%
- Efficacy (Bromus sterilis (BROST); [9]): 40%
- Efficacy (Bromus sterilis (BROST); [10]): 0%
- Efficacy (Bromus sterilis (BROST); [7]): 15%
- Efficacy [3, 8]: 0%
- Efficacy [3, 9]: 35%
- Efficacy (Eleusine indica (ELEIN); [12]): 10%
- Efficacy [4, 5]: 65%
- Efficacy [4, 8]: 65%
- Efficacy [4, 11]: 50%

SMILES: CP(=O)(O)CCC(N)C(=O)O (centres unmarked) [glufosinate-ammonium]
- Efficacy (Galium aparine (GALAP); [14]): 0%
- Efficacy (Galium aparine (GALAP); [15]): 0%
- Efficacy (Poa annua (POAAN); [16]): 0%
- Efficacy (Poa annua (POAAN); [17]): 5%
- Efficacy (Poa annua (POAAN); [18]): 5%
- Efficacy (Phalaris minor (PHAMI); [14]): 0%
- Efficacy (Phalaris minor (PHAMI); [16]): 15%
- Efficacy (Phalaris minor (PHAMI); [19]): 0%
- Efficacy (Phalaris minor (PHAMI); [17]): 10%
- Efficacy (Phalaris minor (PHAMI); [15]): 0%
- Efficacy (Phalaris minor (PHAMI); [18]): 10%
- Efficacy [1, 14]: 0%
- Efficacy [1, 16]: 30%
- Efficacy [1, 19]: 0%
- Efficacy [1, 17]: 15%
- Efficacy [1, 15]: 0%
- Efficacy [1, 18]: 15%
- Efficacy (Avena fatua (AVEFA); [14]): 0%
- Efficacy (Avena fatua (AVEFA); [16]): 25%
- Efficacy (Avena fatua (AVEFA); [17]): 20%
- Efficacy (Avena fatua (AVEFA); [18]): 20%
- Efficacy (Bromus sterilis (BROST); [16]): 15%
- Efficacy (Bromus sterilis (BROST); [17]): 15%
- Efficacy (Bromus sterilis (BROST); [15]): 0%
- Efficacy [3, 14]: 0%
- Efficacy [3, 16]: 25%
- Efficacy [3, 17]: 15%
- Efficacy [3, 18]: 15%
- Efficacy [4, 14]: 0%
- Efficacy [4, 16]: 25%
- Efficacy [4, 15]: 0%
- Efficacy [4, 18]: 5%

SMILES: O=C(O)CNCP(=O)(O)O [glyphosate]
- Efficacy ([2]; 50 g of a.i./ha): 30%
- Efficacy (Kochia scoparia (KCHSC); [13]): 30%
- Efficacy (Kochia scoparia (KCHSC); 21 days after application, 50 g of a.i./ha): 10%
- Efficacy (Kochia scoparia (KCHSC); 21 days after application, 200 g of a.i./ha): 30%
- pest or weed control at 50 g/ha (Eleusine indica (ELEIN); Eleusine indica, post-emergence, 504 h, read-out: Efficacy): 0%
